14 compounds from patent publication US10053457B2, “Hydroxyalkyl-piperazine derivatives as CXCR3 receptor modulators” (IDORSIA PHARMACEUTICALS LTD, priority 2015, dated 2018) can be followed below.

Common to all, as to format: cell-based
One series deals with human CXCR3A (Homo sapiens (Human), UniProt P49682). Description: FLIPR assay (CXCL10-induced calcium signal). To be noted: CHO-K1 cells expressing human CXCR3A coupled to Galpha(16); CXCL10 agonist 20 nM; mean values. From the text:
(§1) In the case where IC50 values have been determined several times for the same compound, mean values are given.

The next series has as its target CXCR3 (Homo sapiens (Human), UniProt P49682). Description: Receptor internalization assay in human whole blood (CXCR3 surface expression on CD4 positive cells, CXCL10). To be noted: final CXCL10 9 nM, 30 min at 37° C., mean values. On the procedure: Diluted compounds are then mixed with an equal volume of CXCL10 (Peprotech) diluted in PBS. Anticoagulated venous human whole blood is added to the mixture, which is then incubated in a CO2 incubator at 37° C. to allow for ligand mediated receptor internalization (final CXCL10 concentration is 9 nM). After 30 min, the blood is mixed with fluorescently labeled CXCR3 and CD4 specific antibodies (Becton Dickinson) and incubated on ice for 10 minutes. Samples are then mixed with BD FACS Lysing Solution (Becton Dickinson) in order to eliminate red blood cells. After washing the cells with PBS containing 0.5% BSA, the samples are then analyzed in a flow cytometer (FACS Canto II, Becton Dickinson). For data analysis using FACSDiva software (Becton Dickinson), the mean fluorescence corresponding to CXCR3 cell surface expression was determined on CD4 positive cells. The program GraphPad Prism or similar software is used to fit the data to a single site dose response curve and to calculate IC50 values.
as §1

The next series addresses hERG K channel (Homo sapiens (Human), UniProt Q12809). Description: hERG Q-Patch assay. To be noted: CHO cells expressing hERG, K+ tail current 3 min after application, mean of two or three experiments. On the procedure:
Compounds are evaluated for block of the hERG K channel using CHO cells stably expressing the hERG gene (accession number U04270, bSys, Witterswil, Switzerland) and the QPatch robotic platform (Sophion, Ballerup, Denmark) in single-cell mode at room temperature. Cells are grown in culture flasks at 37° C. in 5% CO2, in culture medium (Ham's F-12 Nutrient Mixture, Invitrogen 21765-029) supplemented with 9% (v/v) fetal calf serum, 0.9% Penicillin/Streptomycin (10,000 U/mL, Invitrogen 15140148), 100 μg/mL Hygromycin B (Invitrogen 10687010). When the cells are ˜80% confluent (every 2-3 days), they are either split for further culture or used for electrophysiology. For further culture, cells are detached with 0.25% Trypsin EDTA solution (Invitrogen 25200-056) and a fraction of the cells (10-30%) is reseeded in culture medium. For electrophysiology, on the experimental day, cells are detached with 0.25% Trypsin EDTA solution and all cells are suspended in suspension medium (293 SFM II, Invitrogen 11686-029) supplemented with 20 mM HEPES and 0.04 mg/mL Trypsin inhibitor. Cells are kept in suspension medium at 32-35° C. in the QPatch robot until use, at which time aliquots are transferred to the extracellular solution (in mM: NaCl 150; KCl 4; CaCl2 1.2; MgCl2 1; HEPES 10; pH 7.4 with NaOH) containing 0.3% v/v DMSO and applied to the test plates. K^+ currents are measured with the patch-voltage-clamp technique in the whole-cell configuration with the internal solution (in mM: KCl, 140; NaCl, 10; MgCl2, 1; HEPES, 10: EGTA, 5; pH=7.2 with KOH). Currents are low-pass filtered using the internal Bessel filter of the QPatch robot with a cut-off frequency of 2 kHz and are digitized at 10 kHz. K^+ tail currents are produced from a holding voltage of −80 mV by a 500-ms depolarization to +20 mV followed by a 500-ms repolarization to −40 mV; tail current amplitudes are measured at the end of the repolarization to −40 mV. The pulse pattern is repeated every 10 sec during the experiment, baseline K^+ current is measured after 3 min in extracellular solution, test-solution containing compound is then applied, and K^+ current in presence of compound is measured 3 minutes after application to the cells. The respective test-solution is prepared by (1) dissolving the test-compound in pure DMSO, (2) diluting this DMSO solution in extracellular solution, and (3) adding further DMSO, such that the final test-solution has a concentration of either 300 nM or 3000 nM of the test-compound and contains 0.3% v/v DMSO. Compound effects are quantified as % block by dividing the current in presence of compound by the baseline current; two or three experiments are performed for each compound and the final value represents the mean of the results of each experiment.
In general terms: The hERG channel carries a current that helps repolarise heart muscle cells.

Sequence of human CXCR3A (P49682 whole entry): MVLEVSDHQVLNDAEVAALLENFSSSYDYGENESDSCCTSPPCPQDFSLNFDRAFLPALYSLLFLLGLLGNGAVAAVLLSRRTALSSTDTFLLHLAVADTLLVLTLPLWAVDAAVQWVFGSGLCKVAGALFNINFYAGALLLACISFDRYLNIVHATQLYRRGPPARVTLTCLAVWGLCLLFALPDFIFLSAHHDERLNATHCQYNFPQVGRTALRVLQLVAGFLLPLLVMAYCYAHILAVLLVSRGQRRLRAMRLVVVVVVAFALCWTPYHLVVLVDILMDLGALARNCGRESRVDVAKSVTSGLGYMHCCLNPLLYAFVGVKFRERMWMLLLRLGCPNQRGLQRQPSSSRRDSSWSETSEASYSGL
Sequence of CXCR3 (P49682 whole entry): as above
Sequence of hERG K channel (Q12809 whole entry): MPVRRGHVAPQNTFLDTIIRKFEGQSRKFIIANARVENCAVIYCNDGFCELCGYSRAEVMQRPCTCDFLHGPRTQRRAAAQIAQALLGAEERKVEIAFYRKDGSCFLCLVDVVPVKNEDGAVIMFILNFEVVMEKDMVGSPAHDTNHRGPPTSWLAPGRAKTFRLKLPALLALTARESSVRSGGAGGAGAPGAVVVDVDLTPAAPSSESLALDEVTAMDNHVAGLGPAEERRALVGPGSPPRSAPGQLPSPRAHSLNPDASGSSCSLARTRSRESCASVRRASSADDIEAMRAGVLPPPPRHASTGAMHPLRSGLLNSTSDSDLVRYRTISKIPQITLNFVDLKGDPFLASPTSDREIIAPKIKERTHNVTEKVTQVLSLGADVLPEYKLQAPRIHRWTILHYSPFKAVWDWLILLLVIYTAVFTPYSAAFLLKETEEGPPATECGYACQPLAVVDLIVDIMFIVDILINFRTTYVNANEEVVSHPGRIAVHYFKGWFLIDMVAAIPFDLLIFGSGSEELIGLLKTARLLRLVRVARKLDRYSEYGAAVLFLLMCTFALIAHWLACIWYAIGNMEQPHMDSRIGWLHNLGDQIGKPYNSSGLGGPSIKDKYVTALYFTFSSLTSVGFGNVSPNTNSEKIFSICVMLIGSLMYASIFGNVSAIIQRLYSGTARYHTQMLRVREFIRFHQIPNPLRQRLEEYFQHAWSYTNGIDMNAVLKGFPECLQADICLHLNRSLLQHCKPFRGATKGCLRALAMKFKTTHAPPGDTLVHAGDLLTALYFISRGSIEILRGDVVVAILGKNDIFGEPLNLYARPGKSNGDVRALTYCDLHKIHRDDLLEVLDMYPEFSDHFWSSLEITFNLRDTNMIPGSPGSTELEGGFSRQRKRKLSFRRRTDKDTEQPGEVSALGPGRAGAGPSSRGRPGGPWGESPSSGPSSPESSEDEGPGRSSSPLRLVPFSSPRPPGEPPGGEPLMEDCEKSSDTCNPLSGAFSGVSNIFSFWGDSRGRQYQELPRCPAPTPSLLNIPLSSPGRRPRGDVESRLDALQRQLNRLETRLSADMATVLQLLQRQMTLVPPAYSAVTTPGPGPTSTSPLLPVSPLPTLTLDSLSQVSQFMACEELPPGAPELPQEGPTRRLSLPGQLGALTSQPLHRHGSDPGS

With `CC(C)(C)c1ncn(CC(=O)N2CCN(c3sc(C(F)(F)F)nc3-c3cnc(C(F)(F)F)nc3)C[C@H]2CO)n1` [Example 1, 2-(3-tert-Butyl-[1,2,4]triazol-1-yl)-1-{(S)-2-hydroxymethyl-4-[2-trifluoromethyl-4-(2-trifluoromethyl-pyrimidin-5-yl)-thiazol-5-yl]-piperazin-1-yl}-ethanone], the IC50 at human CXCR3A turned out to be 6.7 nM; at CXCR3 it was 415 nM. In addition, the “% block” value at hERG K channel (concentration 300 nM) is listed as 2%; on hERG K channel (concentration 3000 nM), 12%.

For `Cc1nc(C)n(CC(=O)N2CCN(c3sc(C(F)(F)F)nc3-c3cnc(C(F)(F)F)nc3)C[C@H]2CO)n1` [Example 2, 2-(3,5-Dimethyl-[1,2,4]triazol-1-yl)-1-{(S)-2-hydroxymethyl-4-[2-trifluoromethyl-4-(2-trifluoromethyl-pyrimidin-5-yl)-thiazol-5-yl]-piperazin-1-yl}-ethanone], the IC50 on human CXCR3A came out at 6 nM; at CXCR3 it was 463 nM. Besides, the “% block” value on hERG K channel (concentration 300 nM) is on record as −3%; on hERG K channel (concentration 3000 nM) it was −4%.

For the compound `O=C(Cn1cnc(C2CC2)n1)N1CCN(c2sc(C(F)(F)F)nc2-c2cnc(C(F)(F)F)nc2)C[C@H]1CO` [Example 3, 2-(3-Cyclopropyl-[1,2,4]triazol-1-yl)-1-{(S)-2-hydroxymethyl-4-[2-trifluoromethyl-4-(2-trifluoromethyl-pyrimidin-5-yl)-thiazol-5-yl]-piperazin-1-yl}-ethanone], the IC50 on human CXCR3A was found to be 3 nM; on CXCR3 it was 191 nM. Besides, the figures for the “% block” value on hERG K channel (concentration 300 nM) and at hERG K channel (concentration 3000 nM) were 0% and 12%, respectively.

With `CC(C)c1ncn(CC(=O)N2CCN(c3sc(C(F)(F)F)nc3-c3cnc(C(F)(F)F)nc3)C[C@H]2CO)n1` [Example 4, 1-{(S)-2-Hydroxymethyl-4-[2-trifluoromethyl-4-(2-trifluoromethyl-pyrimidin-5-yl)-thiazol-5-yl]-piperazin-1-yl}-2-(3-isopropyl-[1,2,4]triazol-1-yl)-ethanone], the IC50 worked out at 1.8 nM at human CXCR3A and 283 nM at CXCR3. For the same compound, the “% block” value at hERG K channel (concentration 300 nM) was found to be 4%; on hERG K channel (concentration 3000 nM), 13%.

In the case of `O=C(Cn1cnc(C(F)(F)F)n1)N1CCN(c2sc(C(F)(F)F)nc2-c2cnc(C(F)(F)F)nc2)C[C@H]1CO` [Example 5, 1-{(S)-2-Hydroxymethyl-4-[2-trifluoromethyl-4-(2-trifluoromethyl-pyrimidin-5-yl)-thiazol-5-yl]-piperazin-1-yl}-2-(3-trifluoromethyl-[1,2,4]triazol-1-yl)-ethanone], the values for the IC50 at human CXCR3A and on CXCR3 were 4 nM and 328 nM, respectively. Moreover, the figures for the “% block” value on hERG K channel (concentration 300 nM) and on hERG K channel (concentration 3000 nM) were −2% and 7%, respectively.

For the compound `CCOc1ncc(-c2nc(C(F)(F)F)sc2N2CCN(C(=O)Cn3cnc(C(F)(F)F)n3)[C@H](CO)C2)cn1` [Example 6, 1-{(S)-4-[4-(2-Ethoxy-pyrimidin-5-yl)-2-trifluoromethyl-thiazol-5-yl]-2-hydroxymethyl-piperazin-1-yl}-2-(3-trifluoromethyl-[1,2,4]triazol-1-yl)-ethanone], the IC50 at human CXCR3A stood at 4.6 nM; against CXCR3, 778 nM. In addition, the “% block” value at hERG K channel (concentration 300 nM) is on record as 13%; at hERG K channel (concentration 3000 nM), 23%.

Consider `CCOc1ncc(-c2nc(C(F)(F)F)sc2N2CCN(C(=O)Cn3nc(C)nc3C)[C@H](CO)C2)cn1` [Example 7, 2-(3,5-Dimethyl-[1,2,4]triazol-1-yl)-1-{(S)-4-[4-(2-ethoxy-pyrimidin-5-yl)-2-trifluoromethyl-thiazol-5-yl]-2-hydroxymethyl-piperazin-1-yl}-ethanone], for which the IC50 came out at 3.1 nM on human CXCR3A and 2270 nM against CXCR3. Also, the “% block” value at hERG K channel (concentration 300 nM) turned out to be 24%; at hERG K channel (concentration 3000 nM), 45%.

`Cc1nc(C)n(CC(=O)N2CCN(c3sc(C(F)(F)F)nc3-c3cnc(C4CC4)nc3)C[C@H]2CO)n1` [Example 8, 1-{(S)-4-[4-(2-Cyclopropyl-pyrimidin-5-yl)-2-trifluoromethyl-thiazol-5-yl]-2-hydroxymethyl-piperazin-1-yl}-2-(3,5-dimethyl-[1,2,4]triazol-1-yl)-ethanone]: the half-inhibitory concentration (IC50) turned out to be 10 nM at human CXCR3A and 3200 nM against CXCR3. Also, the “% block” value at hERG K channel (concentration 300 nM) amounted to 19%; at hERG K channel (concentration 3000 nM), 54%.

For the compound `CC(O)c1ncn(CC(=O)N2CCN(c3sc(C(F)(F)F)nc3-c3cnc(C(F)(F)F)nc3)C[C@@H]2CO)n1` (stereo partly drawn) [Example 21, 2-[3-(1-Hydroxy-ethyl)-[1,2,4]triazol-1-yl]-1-{(R)-2-hydroxymethyl-4-[2-trifluoromethyl-4-(2-trifluoromethyl-pyrimidin-5-yl)-thiazol-5-yl]-piperazin-1-yl}-ethanone], the IC50 at human CXCR3A is 4.3 nM; at CXCR3, 737 nM.

Take `O=C(Cn1cnc(-c2ccccn2)n1)N1CCN(c2sc(C(F)(F)F)nc2-c2cnc(C(F)(F)F)nc2)C[C@@H]1CO` [Example 23, 1-{(R)-2-Hydroxymethyl-4-[2-trifluoromethyl-4-(2-trifluoromethyl-pyrimidin-5-yl)-thiazol-5-yl]-piperazin-1-yl}-2-(3-pyridin-2-yl-[1,2,4]triazol-1-yl)-ethanone]: the 50% inhibitory concentration (IC50) came out at 35 nM on human CXCR3A and 2730 nM on CXCR3.

Turning to `CCc1nc(C)n(CC(=O)N2CCN(c3sc(C(F)(F)F)nc3-c3cnc(C(F)(F)F)nc3)C[C@@H]2CO)n1` [Example 24, 2-(3-ethyl-5-methyl-[1,2,4]triazol-1-yl)-1-{(R)-2-hydroxymethyl-4-[2-trifluoromethyl-4-(2-trifluoromethyl-pyrimidin-5-yl)-thiazol-5-yl]-piperazin-1-yl}-ethanone], the IC50 turned out to be 7.6 nM at human CXCR3A and 355 nM on CXCR3.

Regarding `CCc1nc(C)nn1CC(=O)N1CCN(c2sc(C(F)(F)F)nc2-c2cnc(C(F)(F)F)nc2)C[C@@H]1CO` [Example 25, 2-(5-ethyl-3-methyl-[1,2,4]triazol-1-yl)-1-{(R)-2-hydroxymethyl-4-[2-trifluoromethyl-4-(2-trifluoromethyl-pyrimidin-5-yl)-thiazol-5-yl]-piperazin-1-yl}-ethanone], the IC50 on human CXCR3A stood at 3.6 nM; on CXCR3, 664 nM.

In the case of `O=C(Cn1cnc2cccnc21)N1CCN(c2sc(C(F)(F)F)nc2-c2cnc(C(F)(F)F)nc2)C[C@@H]1CO` [Example 26, 1-{(R)-2-Hydroxymethyl-4-[2-trifluoromethyl-4-(2-trifluoromethyl-pyrimidin-5-yl)-thiazol-5-yl]-piperazin-1-yl}-2-imidazo[4,5-b]pyridin-3-yl-ethanone], the values for the IC50 on human CXCR3A and on CXCR3 were 3.5 nM and 74.2 nM, respectively.

As to `O=C(Cn1cnc(C(F)F)n1)N1CCN(c2sc(C(F)(F)F)nc2-c2cnc(C(F)(F)F)nc2)C[C@@H]1CO` [Example 38, 2-(3-Difluoromethyl-[1,2,4]triazol-1-yl)-1-{(R)-2-hydroxymethyl-4-[2-trifluoromethyl-4-(2-trifluoromethyl-pyrimidin-5-yl)-thiazol-5-yl]-piperazin-1-yl}-ethanone], the results for the concentration for half-maximal inhibition (IC50) at human CXCR3A and on CXCR3 were 8.6 nM and 258 nM, respectively.

For orientation: IC50 means the concentration that gives 50% inhibition.
